Marks after values point to notes of the source that are not given here.
How the values were obtained:
Rat Adjuvant Arthritis [1] = test: Activity on rat adjuvant arthritis (Test Example 1A); format: in vivo, Male Lewis rats; conditions: 6.25 mg/kg once daily for 14 days, relative to non-sensitized rats, N=6; for Body weight gain rate (%): day 14; for Edema inhibitory rate (%): left hind paw volume day 14
Description: (§1) Male Lewis rats (7 weeks old, Clea Japan) were sensitized by intracutaneous injection of 0.05 ml of Freund's complete adjuvant (0.5% dead tubercle bacillus cell suspension in liquid paraffin) at the right hind paw. The test drug (6.25 mg/kg), in a suspension in 0.5% methyl cellulose, was administered once daily for 14 days starting just before sensitization (day 0). At the days 0 and 14, the left hind paw volume and body weight of the animals were measured using a plethysmometer (manufactured by Ugo Basile Company, Italy) and an electronic balance (EB-3200D, manufactured by Shimadzu Corporation, Japan), respectively, and paw swelling suppression rate (%) and body weight gain rate (%), relative to non-sensitized rats, were determined.
(§2) The results, expressed in mean±S.E. for each group (N=6), were compared and statistically analyzed by Dunnet method. Level of significance was set below 5%.

[2] = test system: fetal rat bone culture (humeri, radii and ulnae); test: Bone resorption inhibitory activity, 45Ca release from fetal rat bone culture (Test Example 2A); format: cell-based, Sprague-Dawlay rat; conditions: 10 μM compound, 2 days culture; 45Ca release as % of control without compound (lower = more inhibition)
Description: (§3) The measurement of bone resorption inhibitory activity was carried out according to the method of Raisz [J. Clin. Invest., 44, 103-116 (1965)]. Namely, 50 μCi of ^45Ca (radioisotope of calcium in CaCl2 solution) was subcutaneously injected into a Sprague-Dawlay rat of 18th day of pregnancy. On the next day, the abdomen was opened and a fetal rat was taken out sterilely. The left and right humeri (radii and ulnae) were removed from the body under a dissection microscope and connective tissues and cartilages were removed as much as possible. Thus, bone culture samples were prepared. The bone was incubated in a medium (0.6 ml) of BCJb medium (Fitton-Jackson modification: GIBCO Laboratories, U.S.A.) containing 2 mg/ml of bovine serum albumin at 37° C. for 24 hours in an atmosphere of 5% of CO2 in air. The bones were cultured for an additional 2 days in the above medium containing a final concentration of 10 μM of the compound. The ratio (%) of ^45Ca released from the bone into the medium was calculated according to the following equation. [formula]
(§4) The bones from the same litter were cultured for 2 days the same manner without addition of the compound, and used as the control. The mean±standard deviation of the values for five bones of each group was calculated. The ratio (%) of this value to the control value was calculated. The results are shown in Table 2 (In the tables hereinafter, Ex. No. indicates Example No.).

Rat Adjuvant Arthritis [3] = test: Activity on rat adjuvant arthritis (Test Example 1B); format: in vivo, Male Lewis rats; conditions: N=6; for Body weight gain rate (%): day 14; for Edema inhibitory rate (%): left hind paw volume day 14
Description: as §1, with “(6.25 mg/kg or 3.13” for “(6.25”
as §2

[4] = test system: fetal rat bone culture (humeri, radii and ulnae); test: Bone resorption inhibitory activity, 45Ca release from fetal rat bone culture (Test Example 2B); format: cell-based, Sprague-Dawlay rat; conditions: 10 μM compound, 2 days culture; 45Ca release as % of control without compound (lower = more inhibition)
Description: as §3
as §4, with “Table 4” for “Table 2”

[5] = 3.13 mg/kg once daily for 14 days
[6] = 6.25 mg/kg once daily for 14 days

Row | melting point [°C] | Compound | Bone resorption inhibitory activity (^45Ca release) (% based on the control value) [2] | other results
1 |  | CCOC(=O)c1c(CN(CC)CC)nc2sc3c(c2c1-c1ccc(OC)c(OC)c1)CCN(C(=O)c1ccccc1)C3 [Example 1A, ethyl 7-benzoyl-2-(N,N-diethylaminomethyl)-4-(3,4-dimethoxyphenyl)-5,6,7,8-tetrahydrothieno[2,3-b:5,4-c′]dipyridine-3-carboxylate] |  | Body weight gain rate (%) (Rat Adjuvant Arthritis [1]): 15%; Edema inhibitory rate (%) (Rat Adjuvant Arthritis [1]): 49%
2 | 154 to 155 | CCOC(=O)c1c(CN(CC)CC)nc2sc3c(c2c1-c1ccc(OC)c(OC)c1)CCN(C(=O)Nc1ccccc1)C3 [Example 12A, ethyl 2-(N,N-diethylaminomethyl)-4-(3,4-dimethoxyphenyl)-7-phenylcarbamoyl-5,6,7,8-tetrahydrothieno[2,3-b:5,4-c′]dipyridine-3-carboxylate] | 77* % based on the control value | 
3 |  | 7-benzyl-3-chloro-4-(4-hydroxy-3-methoxyphenyl)-2-(2-oxo-1-pyrrolidinylmethyl)-5,6,7,8-tetrahydrothieno[2,3-b:5,4-c′]dipyridine [Example 29B] |  | Body weight gain rate (%) (Rat Adjuvant Arthritis [3]; [5]): 12%; Edema inhibitory rate (%) (Rat Adjuvant Arthritis [3]; [5]): 69** %
4 | 107 to 108 | CCOC(=O)c1c(CN(CC)CC)nc2sc3c(c2c1-c1ccc(CC)cc1)CCNC3 [Example 33A, ethyl 4-(4-ethylphenyl)-5,6,7,8-tetrahydro-2-(N,N-diethylaminomethyl)thieno[2,3-b:5,4-c′]dipyridine-3-carboxylate] | 72** % based on the control value | 
5 | 72 to 75 | CCOC(=O)c1c(CN(CC)CC)nc2sc3c(c2c1-c1ccc(OC)c(OC)c1)CCNC3 [Example 5A, ethyl 2-(N,N-diethylaminomethyl)-4-(3,4-dimethoxyphenyl)-5,6,7,8-tetrahydrothieno-[2,3-b:5,4-c′]dipyridine-3-carboxylate] | 72* % based on the control value | 
6 | 96 to 98 | CCOC(=O)c1c(CN(CC)CC)nc2sc3c(c2c1-c1ccc(OC)c(OC)c1)CCN(C(=O)c1ccc(Cl)cc1)C3 [Example 2A, ethyl 7-(4-chlorobenzoyl)-2-(N,N-diethylaminomethyl)-4-(3,4-dimethoxyphenyl)-5,6,7,8-tetrahydrothieno[2,3-b:5,4-c′]dipyridine-3-carboxylate] | 62** % based on the control value | 
7 | 165 to 166 | CCOC(=O)c1c(CCCCn2cncn2)nc2sc3c(c2c1-c1ccc(OC)c(OC)c1)CCN(C(=O)c1ccc(Cl)cc1)C3 [Example 28A, ethyl 7-(4-chlorobenzoyl)-4-(3,4-dimethoxyphenyl)-5,6,7,8-tetrahydro-2-[4-(1,2,4-triazol-1-yl]butyl]thieno[2,3-b:5,4-c′]dipyridine-3-carboxylate] | 67*** % based on the control value | 
8 | 114 to 116 | CCOC(=O)c1c(CCCn2cncn2)nc2sc3c(c2c1-c1ccc(OC)c(OC)c1)CCN(C(=O)c1ccc(Cl)cc1)C3 [Example 27A, ethyl 7-(4-chlorobenzoyl)-4-(3,4-dimethoxyphenyl)-5,6,7,8-tetrahydro-2-[3-(1,2,4-triazol-1-yl]propyl]thieno[2,3-b:5,4-c′]dipyridine-3-carboxylate] | 74* % based on the control value | 
9 |  | 7-benzyl-3-chloro-4-(3,4-dimethoxyphenyl)-2-(2-oxo-1-pyrrolidinylmethyl)-5,6,7,8-tetrahydrothieno[2,3-b:5,4-c′]dipyridine [Example 28B] |  | Body weight gain rate (%) (Rat Adjuvant Arthritis [3]; [6]): 19** %; Edema inhibitory rate (%) (Rat Adjuvant Arthritis [3]; [6]): 78** %; Bone resorption inhibitory inhibitory activity (^45Ca release) (% based on the control value) [4]: 47** % based on the control value
10 | 113 to 114 | COc1ccc(-c2c(Cl)c(CN3CCCCCC3=O)nc3sc4c(c23)CCN(Cc2ccccc2)C4)cc1OC [Example 25B, 7-benzyl-3-chloro-4-(3,4-dimethoxyphenyl)-2-(2-oxohexamethyleneiminomethyl)-5,6,7,8-tetrahydrothieno[2,3-b:5,4-c′]dipyridine] |  | Bone resorption inhibitory inhibitory activity (^45Ca release) (% based on the control value) [4]: 52** % based on the control value
11 |  | CCOC(=O)c1c(CN(CC)CC)nc2sc3c(c2c1-c1ccc(OC)c(OC)c1)CCN(C(C)=O)C3 [Example 15A, ethyl 7-acetyl-2-(N,N-diethylaminomethyl)-4-(3,4-dimethoxyphenyl)-5,6,7,8-tetrahydrothieno[2,3-b:5,4-c′]dipyridine-3-carboxylate] |  | Body weight gain rate (%) (Rat Adjuvant Arthritis [1]): 9%; Edema inhibitory rate (%) (Rat Adjuvant Arthritis [1]): 60** %
12 | 142 to 143 | CCOC(=O)c1c2c(cn1CN(CC)CC)C1=C(NC(C(=O)OCc3ccccc3)CC1)[SH]2c1ccc(OC)c(OC)c1 (stereo not shown) [Example 16A, ethyl 2-benzyloxycarbonyl-8-(3,4-dimethoxyphenyl)-6-diethylaminomethyl-2,3-dihydro-1H-pyrrolo[3′,4′:4,5]-thieno[2,3-b]pyridine-7-carboxylate] |  | 
13 | 166 to 167 | CCOC(=O)c1c(Cn2cncn2)nc2sc3ccncc3c2c1-c1ccc(OC)c(OC)c1 [Example 66A, ethyl 4-(3,4-dimethoxyphenyl)-2-(1,2,4-triazol-1-ylmethyl)thieno[2,3-b:4,5-c′]dipyridine-3-carboxylate] |  | 
14 |  | CCOC(=O)c1c(CN(CC)CC)nc2sc3cnccc3c2c1-c1ccc(OC)c(OC)c1 [Example 7A, ethyl 2-(N,N-diethylaminomethyl)-4-(3,4-dimethoxyphenyl)thieno[2,3-b:5,4-c′]dipyridine-3-carboxylate] |  | Body weight gain rate (%) (Rat Adjuvant Arthritis [1]): 26** %; Edema inhibitory rate (%) (Rat Adjuvant Arthritis [1]): 84** %
15 |  | 7-benzyl-3-chloro-4-(3,4-dimethoxyphenyl)-2-(2-oxo-1-piperidinylmethyl)-5,6,7,8-tetrahydrothieno[2,3-b:5,4-c′]dipyridine [Example 24B] |  | Bone resorption inhibitory inhibitory activity (^45Ca release) (% based on the control value) [4]: 44** % based on the control value
16 | 185 to 187 | CCOC(=O)c1c(CN2C(=O)CN(C)C2=O)nc2sc3c(c2c1-c1ccc(OC)c(OC)c1)CCN(C(=O)c1ccccc1)C3 [Example 52A, ethyl 7-benzoyl-4-(3,4-dimethoxyphenyl)-2-(1-methylhydantoin-3-ylmethyl)-5,6,7,8-tetrahydrothieno[2,3-b:5,4-c′]dipyridine-3-carboxylate] |  | 
17 | 138 to 139 | CCOC(=O)c1c(CN(CC)CC)nc2sc3c(c2c1-c1ccc(OC)c(OC)c1)CCCN3C(=O)OCc1ccccc1 [Example 58A, ethyl 8-benzyloxycarbonyl-2-diethylaminomethyl-4-(3,4-dimethoxyphenyl)-5,6,7,8-tetrahydrothieno[2,3-b:5,4-b′]dipyridine-3-carboxylate] |  | 
18 | 128 to 129 | CCC(C)(C)NCc1nc2sc3c(c2c(-c2ccc(OC)c(OC)c2)c1Cl)CCN(Cc1ccccc1)C3 [Example 4B, 2-(tert-amylaminomethyl)-7-benzyl-3-chloro-4-(3,4-dimethoxyphenyl)-5,6,7,8-tetrahydrothieno[2,3-b:5,4-c′]dipyridine] |  | 

— patent publication US6403606B1, “Thienopyridine derivatives and their use” (Takeda Chemical Industries Ltd., priority 1996, dated 2002)
